Reference: patent US4981799A, “Acylamino acid racemase, production and use thereof” (priority 1987, dated 1991)

Key:
acylamino acid racemase [1] = assay: Influences of metal ions on enzyme activities; format: biochemical, Streptomyces sp. Y-53; conditions: for Relative enzyme activity, Additive Concentration 1 mM / Relative enzyme activity, Additive Concentration 10 mM: no additives taken as 100, cobalt chloride excluded; for Relative enzyme activity, Additive Concentration 1 mM: final concentration 1 mM; for Relative enzyme activity, Additive Concentration 10 mM: final concentration 10 mM
Experimental: Enzyme activities are determined by means of a mixed reaction system comprising 50 μl of a solution of the enzyme, 40 μl of a solution of the substrate, 10 μl of an L-aminoacylase solution and 400 μl of a 50 mM Tris-HCl buffer (pH 7.5 ). As the enzyme solution, a solution prepared by dissolving an acylamino acid racemase standard sample in a Tris-HCl buffer (pH 7.5 ) to 1 to 0.2 unit/ml was used; as the L-aminoacylase solution, a solution prepared by dissolving an L-aminoacylase standard sample (a commercially available product such as that produced by Sigma Co. may be used, but the L-aminoacylase extracted and purified from Y-53 strain was used in the present invention) in a Tris-HCl buffer (pH 7.5) to 40 to 8 units/ml.
The above solutions are mixed together by the sequential addition of the Tris-HCl buffer, substrate solution, L-aminoacylase solution and enzyme solution in this order, and reaction is initiated at 30° C. simultaneously with the addition of the enzyme solution.
For the determination of enzyme activities, the amount of methionine produced in the reaction system is determined by high performance liquid chromatography, and the enzyme activity corresponding to the production of 1 μmol/min. methionine is expressed as 1 unit. When a ymM concentration of methionine has been produced in the reaction system during a reaction time of x minutes, the activity (αunit) of the enzyme in 50 μl solution is calculated by the following equation: [formula]
In Table 4, the enzyme activities are presented in relative activities on the basis of the values obtained in the case of no additives as taken as 100.

acylamino acid racemase [2] = assay: Substrate specificity of acylamino acid racemase (enzyme activity determination coupled with aminoacylase); format: biochemical, Streptomyces sp. Y-53; conditions: amount of produced methionine taken as 100, free amino acids checked by amino acid oxidase and HPLC; for Relative Activity (D-form substrate): L-aminoacylase coupled; for Relative Activity (L-form substrate): D-aminoacylase of Y-53 strain coupled
Experimental: Note that the relative activities in Table 3, where N^α -acylamino acids were used as substrates, were determined by the method of enzyme activity determination described in the term .circle.3 , with the values representing the found amount (mM) of the produced α-amino acids corresponding to respective substrates as calculated on the basis of the amount of produced methionine taken as 100. When the substrate was an L-N^α -acylamino acid, D-aminoacylase as produced by Y-53 strain was used in place of L-aminoacylase.

[3] = concentration not singled out (1 mM and 10 mM examined)

## O.O.O.O.O.O.O.O=S(=O)([O-])[O-].[Mn+2] [MnSO4 .7H2 O]
Acylamino acid racemase [1]
  Relative enzyme activity, Additive Concentration 1 mM: 780

## N[C@H](Cc1ccccc1)C(=O)O [D-phenylalanine]
Acylamino acid racemase [2]
  Relative Activity (D-form substrate): 0

## CC[C@H](C)[C@@H](NC(C)=O)C(=O)O [N-acetyl-D-allo-isoleucine]
Acylamino acid racemase [2]
  Relative Activity (D-form substrate): 33

## O.O.O.O.O.O.O.O=S(=O)([O-])[O-].[Fe+2] [FeSO4 .7H2 O]
Acylamino acid racemase [1]
  Relative enzyme activity, Additive Concentration 1 mM: 100
  Relative enzyme activity, Additive Concentration 10 mM: 560

## O=C(CCl)N[C@@H](Cc1ccccc1)C(=O)O [N-chloroacetyl-L-phenylalanine]
Acylamino acid racemase [2]
  Relative Activity (L-form substrate): 112

## CC(=O)N[C@H](C(=O)O)C(C)C [N-acetyl-L-valine]
Acylamino acid racemase [2]
  Relative Activity (L-form substrate): 19

## O.O.O.O.O.O.[Cl-].[Cl-].[Sr+2] [SrCl2 .6H2 O]
Acylamino acid racemase [1]
  Relative enzyme activity, Additive Concentration 1 mM: 94
  Relative enzyme activity, Additive Concentration 10 mM: 110

## O.O.O.O.O.O.O=S(=O)([O-])[O-].[Ni+2] [NiSO4 .6H2 O]
Acylamino acid racemase [1]
  Relative enzyme activity, Additive Concentration 1 mM: 460
  Relative enzyme activity, Additive Concentration 10 mM: 0

## [Ca+2].[Cl-].[Cl-] [CaCl2]
Acylamino acid racemase [1]
  Relative enzyme activity, Additive Concentration 1 mM: 95
  Relative enzyme activity, Additive Concentration 10 mM: 100

## CSCC[C@@H](N)C(=O)O [D-methionine]
Acylamino acid racemase [2]
  Relative Activity (D-form substrate): 0

## CC(=O)N[C@H](C)C(=O)O [N-acetyl-D-alanine]
Acylamino acid racemase [2]
  Relative Activity (D-form substrate): 33

## C[C@@H](NC(=O)c1ccccc1)C(=O)O [N-benzoyl-D-alanine]
Acylamino acid racemase [2]
  Relative Activity (D-form substrate): 14

## N[C@@H](Cc1c[nH]c2ccccc12)C(=O)O [L-tryptophan]
Acylamino acid racemase [2]
  Relative Activity (L-form substrate): 0

## CC(=O)N[C@H](CC(C)C)C(=O)O [N-acetyl-D-leucine]
Acylamino acid racemase [2]
  Relative Activity (D-form substrate): 37

## O=C(CCl)N[C@H](Cc1ccccc1)C(=O)O [N-chloroacetyl-D-phenylalanine]
Acylamino acid racemase [2]
  Relative Activity (D-form substrate): 90

## CC(C)[C@@H](N)C(=O)O [D-valine]
Acylamino acid racemase [2]
  Relative Activity (D-form substrate): 0

## O.O.O.O.O.O.[Cl][Cr]([Cl])[Cl] [CrCl3 .6H2 O]
Acylamino acid racemase [1]
  Relative enzyme activity, Additive Concentration 1 mM: 96
  Relative enzyme activity, Additive Concentration 10 mM: 100

## C[C@H](N)C(=O)O [L-alanine]
Acylamino acid racemase [2]
  Relative Activity (L-form substrate): 0

## CC(=O)N[C@@H](CC(C)C)C(=O)O [N-acetyl-L-leucine]
Acylamino acid racemase [2]
  Relative Activity (L-form substrate): 74

## N[C@@H](Cc1ccccc1)C(=O)O [L-phenylalanine]
Acylamino acid racemase [2]
  Relative Activity (L-form substrate): 0

## CC(=O)N[C@@H](Cc1ccccc1)C(=O)O [N-acetyl-L-phenylalanine]
Acylamino acid racemase [2]
  Relative Activity (L-form substrate): 84

## CC(C)[C@H](N)C(=O)O [L-valine]
Acylamino acid racemase [2]
  Relative Activity (L-form substrate): 0

## O=S(=O)([O-])[O-].[Sn+2] [SnSO4]
Acylamino acid racemase [1]
  Relative enzyme activity, Additive Concentration 1 mM: 92
  Relative enzyme activity, Additive Concentration 10 mM: 100

## N[C@H](Cc1c[nH]c2ccccc12)C(=O)O [D-tryptophan]
Acylamino acid racemase [2]
  Relative Activity (D-form substrate): 0

## C[C@@H](N)C(=O)O [D-alanine]
Acylamino acid racemase [2]
  Relative Activity (D-form substrate): 0

## [Cl-].[Li+] [LiCl]
Acylamino acid racemase [1]
  Relative enzyme activity, Additive Concentration 1 mM: 100
  Relative enzyme activity, Additive Concentration 10 mM: 120

## O.O.[Ba+2].[Cl-].[Cl-] [BaCl2 .2H2 O]
Acylamino acid racemase [1]
  Relative enzyme activity, Additive Concentration 1 mM: 85
  Relative enzyme activity, Additive Concentration 10 mM: 120

## CC(=O)N[C@@H](Cc1c[nH]c2ccccc12)C(=O)O [N-acetyl-L-tryptophan]
Acylamino acid racemase [2]
  Relative Activity (L-form substrate): 8

## O.O.O.O.O.O.[Cl-].[Cl-].[Co+2] [CoCl2 .6H2 O]
Acylamino acid racemase [1]; at 10 mM
  Effect on enzyme activity (in words): hardly activate the enzyme
Acylamino acid racemase [1]; low concentrations (around 1 mM)
  Effect on enzyme activity (in words): noticeable activating effect
Acylamino acid racemase [1]
  Relative enzyme activity, Additive Concentration 10 mM: 140

## [Cl-].[Na+] [NaCl]
Acylamino acid racemase [1]
  Relative enzyme activity, Additive Concentration 1 mM: 100
  Relative enzyme activity, Additive Concentration 10 mM: 130

## CSCC[C@H](NC=O)C(=O)O [N-formyl-L-methionine]
Acylamino acid racemase [2]
  Relative Activity (L-form substrate): 63

## [Cl][Pb][Cl] [PbCl2]
Acylamino acid racemase [1]
  Relative enzyme activity, Additive Concentration 1 mM: 78
  Relative enzyme activity, Additive Concentration 10 mM: 100

## O.O.O.O.O.O=S(=O)([O-])[O-].[Cu+2] [CuSO4 .5H2 O]
Acylamino acid racemase [1]; [3]
  Effect on enzyme activity (in words): noticeable inhibitory effect
Acylamino acid racemase [1]
  Relative enzyme activity, Additive Concentration 1 mM: 0
  Relative enzyme activity, Additive Concentration 10 mM: 0

## O.O.O.O.O.O.O.O=S(=O)([O-])[O-].[Zn+2] [ZnSO4 .7H2 O]
Acylamino acid racemase [1]
  Relative enzyme activity, Additive Concentration 1 mM: 810
  Relative enzyme activity, Additive Concentration 10 mM: 80

## CC(C)C[C@@H](N)C(=O)O [D-leucine]
Acylamino acid racemase [2]
  Relative Activity (D-form substrate): 0

## O.O.[Na+].[Na+].[O]=[Mo](=[O])([O-])[O-] [NaMoO4 .2H2 O]
Acylamino acid racemase [1]; at 10 mM
  Effect on enzyme activity (in words): inhibit the enzyme activity
Acylamino acid racemase [1]
  Relative enzyme activity, Additive Concentration 1 mM: 96
  Relative enzyme activity, Additive Concentration 10 mM: 0

## CC(C)[C@@H](NC(=O)CCl)C(=O)O [N-chloroacetyl-D-valine]
Acylamino acid racemase [2]
  Relative Activity (D-form substrate): 80

## CSCC[C@H](NC(C)=O)C(=O)O [N-acetyl-L-methionine]
Acylamino acid racemase [2]
  Relative Activity (L-form substrate): 100

## O.O.O.O.O.O.O.O=S(=O)([O-])[O-].[Mg+2] [MgSO4 .7H2 O]
Acylamino acid racemase [1]; [3]
  Effect on enzyme activity (in words): the activating effect is greater at 10 mM than at 1 mM
Acylamino acid racemase [1]
  Relative enzyme activity, Additive Concentration 1 mM: 890

## CC(C)[C@H](NC(=O)CCl)C(=O)O [N-chloroacetyl-L-valine]
Acylamino acid racemase [2]
  Relative Activity (L-form substrate): 105

## CC(=O)N[C@H](Cc1c[nH]c2ccccc12)C(=O)O [N-acetyl-D-tryptophan]
Acylamino acid racemase [2]
  Relative Activity (D-form substrate): 10

## CC(C)C[C@H](N)C(=O)O [L-leucine]
Acylamino acid racemase [2]
  Relative Activity (L-form substrate): 0

## CC(=O)N[C@@H](C(=O)O)C(C)C [N-acetyl-D-valine]
Acylamino acid racemase [2]
  Relative Activity (D-form substrate): 35

## CSCC[C@@H](NC(C)=O)C(=O)O [N-acetyl-D-methionine]
Acylamino acid racemase [2]
  Relative Activity (D-form substrate): 100

## CC(=O)N[C@@H](C)C(=O)O [N-acetyl-L-alanine]
Acylamino acid racemase [2]
  Relative Activity (L-form substrate): 21

## [Cl-].[K+] [KCl]
Acylamino acid racemase [1]
  Relative enzyme activity, Additive Concentration 1 mM: 110
  Relative enzyme activity, Additive Concentration 10 mM: 130

## CSCC[C@H](N)C(=O)O [L-methionine]
Acylamino acid racemase [2]
  Relative Activity (L-form substrate): 0

## CC(=O)N[C@H](Cc1ccccc1)C(=O)O [N-acetyl-D-phenylalanine]
Acylamino acid racemase [2]
  Relative Activity (D-form substrate): 64

## O=C(O)CN(CCN(CC(=O)O)CC(=O)O)CC(=O)O [EDTA, reference compound]
Acylamino acid racemase [1]; at 10 mM
  Effect on enzyme activity (in words): noticeable inhibitory effect
Acylamino acid racemase [1]
  Relative enzyme activity, Additive Concentration 1 mM: 68
  Relative enzyme activity, Additive Concentration 10 mM: 0

## CSCC[C@@H](NC=O)C(=O)O [N-formyl-D-methionine]
Acylamino acid racemase [2]
  Relative Activity (D-form substrate): 40

## O.O.O.O.O.O.O.O.O.O.O.O.O.O.O.O.O=S(=O)([O-])[O-].O=S(=O)([O-])[O-].O=S(=O)([O-])[O-].[Al+3].[Al+3] [Al2 (SO4)3 .16H2 O]
Acylamino acid racemase [1]; at 10 mM
  Effect on enzyme activity (in words): inhibit the enzyme activity
Acylamino acid racemase [1]
  Relative enzyme activity, Additive Concentration 1 mM: 79
  Relative enzyme activity, Additive Concentration 10 mM: 0
